From BindingDB's records for doi:10.1016/j.bmc.2007.01.010 (Abbott Laboratories, 2007)

Target: T1, RAC-alpha serine/threonine-protein kinase [139-480,S378A,S381A,T450D,S473D] (Homo sapiens, UniProt P31749, S378A/S381A/S473D/T450D)
T1 construct: 139-480
Experiment: Akt Kinase Assay
Details: pH 7.5; 22 °C
Procedure: The kinase assay uses His-Akt1 and a biotinylated peptide as substrate. The biotinylated peptides were immobilized on streptavidin-coated FLASH plates. After reaction, the 33P-phosphopeptide captured on the FLASH plates was measured with a TopCount Packard Instruments […] (Packard Instruments, Boston, MA).

T1 sequence (P31749 139-480 S378A/S381A/T450D/S473D): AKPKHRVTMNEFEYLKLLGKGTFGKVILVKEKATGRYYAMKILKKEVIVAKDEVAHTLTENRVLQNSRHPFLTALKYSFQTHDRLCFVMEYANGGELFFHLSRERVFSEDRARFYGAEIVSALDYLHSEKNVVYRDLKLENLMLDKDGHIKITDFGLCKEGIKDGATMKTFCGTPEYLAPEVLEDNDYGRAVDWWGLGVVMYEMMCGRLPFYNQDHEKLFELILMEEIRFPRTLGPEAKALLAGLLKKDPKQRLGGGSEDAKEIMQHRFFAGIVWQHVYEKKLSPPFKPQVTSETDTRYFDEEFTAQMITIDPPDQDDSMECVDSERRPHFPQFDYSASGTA

IC50 [nM]	Structure (SMILES)
223	N[C@H](COc1cncc(-c2cc3cn[nH]c3cn2)c1)Cc1ccccc1 [3-[(2S)-2-amino-3-phenylpropoxy]-5-{1H-pyrazolo[3,4-c]pyridin-5-yl}pyridine]
59	N[C@H](COc1cncc(-c2cc3c(Cl)n[nH]c3cn2)c1)Cc1ccccc1 [3-[(2S)-2-amino-3-phenylpropoxy]-5-{3-chloro-1H-pyrazolo[3,4-c]pyridin-5-yl}pyridine]
13	C=Cc1n[nH]c2cnc(-c3cncc(OC[C@@H](N)Cc4ccccc4)c3)cc12 [3-[(2S)-2-amino-3-phenylpropoxy]-5-{3-ethenyl-1H-pyrazolo[3,4-c]pyridin-5-yl}pyridine]
25	Cc1n[nH]c2cnc(-c3cncc(OC[C@@H](N)Cc4ccccc4)c3)cc12 [3-[(2S)-2-amino-3-phenylpropoxy]-5-{3-methyl-1H-pyrazolo[3,4-c]pyridin-5-yl}pyridine]
8.3	N[C@H](COc1cncc(-c2cc3c(-c4ccccc4)n[nH]c3cn2)c1)Cc1ccccc1 [3-[(2S)-2-amino-3-phenylpropoxy]-5-{3-phenyl-1H-pyrazolo[3,4-c]pyridin-5-yl}pyridine]
1.8	N[C@H](COc1cncc(-c2ccc3[nH]nc(C(F)(F)F)c3c2)c1)Cc1c[nH]c2ccccc12 [5-{5-[(2S)-2-amino-3-(1H-indol-3-yl)propoxy]pyridin-3-yl}-3-(trifluoromethyl)-1H-indazole]
104	Cc1n[nH]c2c[n+]([O-])c(-c3cncc(OC[C@@H](N)Cc4ccccc4)c3)cc12 [5-{5-[(2S)-2-amino-3-phenylpropoxy]pyridin-3-yl}-3-methyl-6-oxido-1H-pyrazolo[3,4-c]pyridin-6-ium]

More lines, now with the values behind:

Structure (SMILES)	IC50 [nM]
N[C@H](COc1cncc(-c2cc3cn[nH]c3cn2)c1)Cc1c[nH]c2ccccc12 [3-[(2S)-2-amino-3-[(5-{1H-pyrazolo[3,4-c]pyridin-5-yl}pyridin-3-yl)oxy]propyl]-1H-indole]	0.6
Cn1cccc1-c1n[nH]c2cnc(-c3cncc(OC[C@@H](N)Cc4ccccc4)c3)cc12 [3-[(2S)-2-amino-3-phenylpropoxy]-5-[3-(1-methyl-1H-pyrrol-2-yl)-1H-pyrazolo[3,4-c]pyridin-5-yl]pyridine]	228
N[C@H](COc1cncc(-c2cc3c(-c4ccco4)n[nH]c3cn2)c1)Cc1ccccc1 [3-[(2S)-2-amino-3-phenylpropoxy]-5-[3-(furan-2-yl)-1H-pyrazolo[3,4-c]pyridin-5-yl]pyridine]	6.1
Nc1cc2[nH]ncc2cc1-c1cncc(OC[C@@H](N)Cc2c[nH]c3ccccc23)c1 [5-{5-[(2S)-2-amino-3-(1H-indol-3-yl)propoxy]pyridin-3-yl}-1H-indazol-6-amine]	51
N[C@H](COc1cncc(-c2ccc3[nH]ncc3c2)c1)Cc1c[nH]c2ccccc12 [5-{5-[(2S)-2-amino-3-(1H-indol-3-yl)propoxy]pyridin-3-yl}-1H-indazole]	1.5
Nc1cc2[nH]nc(Cl)c2cc1-c1cncc(OC[C@@H](N)Cc2c[nH]c3ccccc23)c1 [5-{5-[(2S)-2-amino-3-(1H-indol-3-yl)propoxy]pyridin-3-yl}-3-chloro-1H-indazol-6-amine]	7.1
N[C@H](COc1cncc(-c2ccc3[nH]nc(Cl)c3c2)c1)Cc1c[nH]c2ccccc12 [5-{5-[(2S)-2-amino-3-(1H-indol-3-yl)propoxy]pyridin-3-yl}-3-chloro-1H-indazole]	1
N[C@H](COc1cncc(-c2cc3cn[nH]c3cc2[N+](=O)[O-])c1)Cc1c[nH]c2ccccc12 [5-{5-[(2S)-2-amino-3-(1H-indol-3-yl)propoxy]pyridin-3-yl}-6-nitro-1H-indazole]	953
Cc1n[nH]c2cnc(-c3cncc(OC[C@@H](N)Cc4c[nH]c5ccccc45)c3)cc12 [pyrazolopyridine analog, 9g]	0.34
